One test has as its system Staphylococcus aureus. Description: Antibacterial activity against Staphylococcus aureus assessed as growth inhibition at 1500 uM after 24 hr by agar well diffusion method. The class given is functional. As to conditions: read-out: IZ. Background: In agar diffusion tests the substance spreads into inoculated agar from a disc or well.
The subject of the next test is Escherichia coli. Description: Antibacterial activity against Escherichia coli assessed as growth inhibition at 1500 uM after 24 hr by agar well diffusion method. The class given is functional. As to conditions: read-out: IZ.

The structures appear in SMILES notation.

Turning to `Cc1cc(=O)[nH]c2cc(Nc3cccc(C(=O)O)c3)ccc12`, the zone of inhibition at 1500 µM with Staphylococcus aureus and in the test with Escherichia coli was 7 mm throughout.
As for `Cc1cc(O)nc2cc(N)ccc12`, the values for the zone of inhibition at 1500 µM with Staphylococcus aureus and in the test with Escherichia coli were 5.5 mm and 4 mm, respectively.
Consider `Cc1cc(=O)[nH]c2cc(Nc3nccnc3C(=O)O)ccc12`, for which the zone of inhibition at 1500 µM in the test with Staphylococcus aureus is 7.5 mm; in the test on Escherichia coli it was 8 mm.
On to `Cc1cc(=O)[nH]c2cc(Nc3ccc(C(=O)O)cn3)ccc12`, for which, in the test with Staphylococcus aureus, the zone of inhibition at 1500 µM amounted to 3 mm.
On to `Cc1cc(=O)[nH]c2cc(Nc3ncccc3C(=O)O)ccc12`, for which the zone of inhibition at 1500 µM in the test on Staphylococcus aureus worked out at 5 mm; in the test on Escherichia coli, 4.2 mm.
As for `Cc1cc(=O)[nH]c2cc(Nc3ccncc3C(=O)O)ccc12`, the results for the zone of inhibition at 1500 µM in the test on Staphylococcus aureus and in the test with Escherichia coli were 9 mm and 7 mm, respectively.
As for `Cc1cc(=O)[nH]c2cc(Nc3ccccc3C(=O)O)ccc12`, the figures for the zone of inhibition at 1500 µM in the test on Staphylococcus aureus and in the test on Escherichia coli were 8 mm and 7 mm, respectively.
For `Cc1cc(=O)[nH]c2cc(Nc3cnc(C(=O)O)cn3)ccc12`, in that order: 9 mm and 8.5 mm.
Taken in the same sequence, the figures for `Cc1cc(=O)[nH]c2cc(Nc3ccc(C(=O)O)cc3)ccc12` were 13.5 mm and 12.8 mm.
With `O=C(O)c1cn(C2CC2)c2cc(N3CCNCC3)c(F)cc2c1=O` [CIPROFLOXACIN], the zone of inhibition at 1500 µM in the test with Staphylococcus aureus was determined as 15 mm.

For the origin of these results see ChEMBL document CHEMBL3046086, “In-silico design, synthesis and evaluation of novel DNA-gyrase B inhibitors” (2013).
